{"source": "patent US9433663B2", "about": "“Mobilization of hematopoietic stem cells” (Children's Hospital Medical Center, priority 2008, dated 2016)", "key": {"leukemia cells": {"test_system": "leukemia cells", "experiment": "apoptosis of leukemia cells by FACS analysis", "format": "cell-based, human", "settings": "after 24 hrs' CASIN pre-treatment, FIG. 5D"}, "LT-HSCs": {"test_system": "LT-HSCs", "experiment": "Example 9 double-labeling of LT-HSC localization in the niche", "format": "in vivo, mice", "settings": "48 hours or earlier after mobilization", "description": "These studies use a double-labeling technique to monitor the localization change of LT-HSCs upon mobilization by CASIN.\nAMD3100 and G-CSF induced mobilization are used as positive controls, while the control medium is used as a negative control. DBA/2, PeP3b, and C57Bl/6 mice are used in parallel to test the effects of variable mobilization capacity on the movement of LT-HSCs.\nBasically, mice are fed BrdU (0.8 mg/ml) in drinking water for 10 days, followed by a chase period of seventy days, after which only the slow cycling LT-HSCs are found to retain the BrdU-label. At the end of the chase period of BrdU labeling, CASIN, AMD3100, G-CSF, or control is administrated on the mice and 3H-TdR is pulse-labeled 1 h before sacrificing the mice. Mice are sacrificed at different time points post administration of mobilizers or control in order to reflect the kinetic changes of HSC localization upon mobilization. And then bone sections are immunochemically stained with anti-BrdU antibody and alkaline phosphatase-labeled secondary IgG, followed by visualization with red substrate. In the meantime, autoradiography is performed to visualize cell incorporated with 3H-TdR. A cell is considered to be double-labeled if it contains greater than 5 silver grains per nucleus over a bright nuclear pattern of red staining."}, "WASP": {"test_system": "WASP", "experiment": "phosphorylation of WASP in 32D progenitors", "format": "cell-based, murine", "settings": "FIG. 7D", "text": "FIG. 7D. CASIN treatment in 32 progenitors led to dampened phosphorylation of WASP, […]."}, "Cdc42": {"biological_target": "Cdc42 (Mus musculus, UniProt P60766)", "sequence (P60766 whole entry)": "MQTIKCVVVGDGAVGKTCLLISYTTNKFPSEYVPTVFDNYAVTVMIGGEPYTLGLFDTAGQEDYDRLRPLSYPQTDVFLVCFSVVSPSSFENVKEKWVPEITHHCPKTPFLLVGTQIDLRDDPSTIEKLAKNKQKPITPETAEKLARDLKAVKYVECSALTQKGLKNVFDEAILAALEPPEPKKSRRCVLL", "experiment": "Rho GTPase effector pull-down in murine LDBM cells, Cdc42", "format": "cell-based", "parameters": "endogenous in cells; host or cells: murine low density bone marrow (LDBM) cells", "description": "To analyze the effects of CASIN on the formation of active GTP-bound Cdc42, RhoA, and Rac1, effector pulldown assays were carried out as described previously. Cdc42GAP^−/− MEF, LDBM, CD34^+ hCB cells were treated with CASIN at doses of 5-20 μM in parallel with vehicle control for 2 hrs after overnight starvation, and stimulated with cytokines subsequently. And then cells were lysed in a buffer containing 20 mM Tris-HCL (pH 7.6), 100 mM NaCl, 1% Triton X-100, 10 mM MgCl2, 2 mM NaF, and Protease inhibitor cocktail (Roche Diagnostics). Lysates were incubated with GST-P21-binding domain of PAK1 for RAC1-GTP and Cdc42-GTP, and GST-RBD domain of Rhotekin for RhoA-GTP respectively. Both bound- and unbound-form of Rho GTPases were probed by immunoblotting with antibodies specific for Rac1 (BD biosciences), Cdc42 (BD biosciences), and RhoA (cell signaling)."}, "Fancc−/− mice": {"test_system": "Fancc−/− mice", "experiment": "Example 10 HSC/P mobilization in Fancc−/− mice", "settings": "mouse, in vivo", "description": "The effects of CASIN on HSC/P mobilization in Fancc−/− mice are investigated under four groups in parallel with WT mice: (1) Control group; (2) G-CSF group: 2.5 μg G-CSF per mouse, twice a day for 4 d120; (3) CASIN group: 2.5 mg/Kg; (4) combination of CASIN and G-CSF: one injection of CASIN is given 40 h before the end of 4 d G-CSF administration.\nFancc−/− or WT mice are mobilized with regimens corresponding to the four experimental groups. Then PB are harvested by cardiac puncture. Phenotypically, the absolute number and percentage of HSC/Ps in PB after mobilization are determined as those of LSK (Lin− Sca+ c-Kit+) cells by flow cytometry. Functionally, CFU-C assay is performed in triplicate for each mouse by using PB of mice from different experimental groups, and CFU-GM, CFU-GEMM, BFU-E, and CFU-E are distinguished by morphology and using cytokine combinations. Furthermore, the long-term repopulation capacity of the mobilized HSCs is evaluated using a competitive repopulating assay and subsequent secondary transplantation as discussed above."}, "C57Bl/6 mice": {"test_system": "C57Bl/6 mice", "experiment": "Example 7 PK/PD analysis of HPC mobilization in C57Bl/6 mice", "format": "in vivo", "description": "The mice are i.p. administered with CASIN at 6 different doses (0.5, 1.0, 2.5, 5.0, 7.5, and 10 mg/Kg), and ˜1 ml blood are collected by cardiac puncture for PD and PK analysis predosing, 6, 12, 24, 36, 48, 60, and 72 h postdosing. 5 mice are used for each group. To do PK analysis, concentrations of CASIN in plasma are determined by high-pressure liquid chromatography (HPLC) with electrochemical detection, and then all compartmental and noncompartmental analyses are performed using WinNonlin Professional (version 2.0) software (Pharsight, Cary, N.C.). The maximum drug concentration in serum (Cmax) and the time to Cmax are determined directly from the concentration-time curves. Terminal elimination half-life is determined by linear regression of the log-transformed final concentration-time points. As for the PD analysis, the effects of CASIN on mobilization of CFU-GM, CFU-GEMM, BFU-E and CFU-E to the blood of C57Bl/6 mice are evaluated. By using the rest of blood, assays for CFU-GM, CFU-GEMM, BFU-E and CFU-E are performed using ingredients and cytokine combinations, and then the plot of CFU number versus time across the dose groups is drawn. In this way, the optimal dose and time for mobilization in C57Bl/6 mice are determined. […]"}}}
{"smiles": "OCCNC1CCCc2c1[nH]c1ccc(-c3ccccc3)cc21", "note": "(centres unmarked) [CASIN]", "values": [{"measurement": "apoptosis of leukemia cells", "setting": "leukemia cells", "value": "precipitated leukemia cells to apoptosis"}, {"measurement": "number of BrdU-labeled LT-HSC in bone marrow niche", "setting": "LT-HSCs", "value": "reduced"}, {"measurement": "phosphorylation of WASP", "setting": "WASP", "value": "dampened"}, {"measurement": "Cdc42 activity", "setting": "Cdc42; pre-treatment at 5 and 10 μM, mixed cytokine stimulation", "value": "dose-dependent inhibition"}, {"measurement": "reversibility of Cdc42 activity inhibition", "setting": "Cdc42; removal of CASIN by a pre-wash", "value": "reversible"}, {"measurement": "mobilization of HSC/Ps (LSK cells, progenitor colonies) in Fancc−/− mice", "setting": "Fancc−/− mice", "value": "effective mobilizer"}, {"measurement": "mobilization after multiple injections one half-life time apart", "setting": "C57Bl/6 mice; C57/B16", "value": "stronger mobilization effects than that of single CASIN injection"}, {"measurement": "mobilization of HPCs (colony numbers versus dose)", "setting": "C57Bl/6 mice; single i.p. dose, C57Bl/6 mice", "value": "dose-dependent pattern"}]}
